Results as given in US6863898B2, “Method and composition for treating hairy hoof warts” (priority 2002, dated 2005).

Tested on: hairy hoof warts
Experiment: Footwrap application of aspirin compositions to infected hoofs of cows with hairy hoof warts
Assay type: in vivo
Conditions: topical; for healing of hairy hoof wart infections (result in words): 23 cubic centimeters in a footwrap left on the hoof about fourteen days
Method: In testing the method of the subject invention on cows with hairy hoof warts, an aspirin composition (100% aspirin powder) was administered to the infected hoof by incorporating the aspirin into a conventional footwrap and wrapping the footwrap about an animal's hoof so that the aspirin was applied to an infected area of an animal's hoof. The aspirin composition of the subject invention that includes about 75% by weight aspirin powder, about 5% by weight hydrated lime, about 15% by weight sodium bentonite, and about 5% by weight chalk was also tested in the same manner. With the application of the aspirin compositions to the infected hoof areas by this method, the infection progressively diminished and the hairy hoof warts were typically healed within about fourteen days. In the method of the subject invention for treating anchor preventing hairy hoof warts, an aspirin composition of 100% aspirin, a composition of another compound or derivative of salicylic acid of 100% of the other compound or derivative, an aspirin containing composition, or a composition containing another compound or derivative of salicylic acid is administered in an effective amount to an infected area of an animal's hoof or, as a preventive measure, to an area of an animal's hoof that could be infected. In a preferred embodiment of the method of the subject invention, the composition of or containing aspirin or another compound or derivative of salicylic acid is incorporated into a conventional footwrap, such as but not limited to a footwrap sold by Minnesota Mining and Manufacturing under the trade designation “[…]”. The footwrap is then applied to an animal's hoof with the composition being applied to the infected area of the hoof or, as a preventive measure, to an area of potential hoof infection. […]

**Q.** Which results are given for `CC(=O)Oc1ccccc1C(=O)O` [100% aspirin powder, aspirin]?
**A.** healing of hairy hoof wart infections (result in words) (listed as 100% powdered aspirin composition): successful in healing even severe hairy hoof wart infections; healing of hairy hoof wart infections (result in words) (listed as aspirin composition of 100% aspirin): appeared to achieve the best results; time until the hairy hoof warts were healed (composition in a conventional footwrap on the infected hoof area, typical value): fourteen
